Source: patent publication US4987129A, “Cephalosporin derivatives” (priority 1987, dated 1991)
Values after ≈ are worked out from the molar mass of the structure shown. Where a name gives a salt, the structure may show the parent alone. Read-outs that look alike come from different tables or passages of the source.

Assays:
Type in all cases: cell-based
[1] = test system: Proteus vulgris GN7919; test: minimum inhibitory concentration (MIC)
Method: (§1) The minimum inhibitory concentration (MIC) of the compounds obtained in the above Examples were measured according to the standard method of Japan Society of Chemotherapy.

[2] = test system: Citrobacter freundii GN7391; test: minimum inhibitory concentration (MIC)
Method: as §1

[3] = test system: Enterobacter cloacae 908RN; test: minimum inhibitory concentration (MIC)
Method: as §1

[4] = test system: Serratia marcescens GN10857; test: minimum inhibitory concentration (MIC); details: Tables 2A, 2B
Method: as §1

[5] = test system: Klebsiella pneumoniae 4at521; test: minimum inhibitory concentration (MIC); details: Tables 2A, 2B
Method: as §1

[6] = test system: Escherichia coli ML4704; test: minimum inhibitory concentration (MIC)
Method: as §1

[7] = test system: Pseudomonas aeruginosa 5D58-1; test: minimum inhibitory concentration (MIC); details: 5D581, Tables 2A, 2B
Method: as §1

[8] = test system: Staphylococcus aureus IAA498; test: minimum inhibitory concentration (MIC); details: Tables 2A, 2B
Method: as §1

[9] = test system: Pseudomonas aeruginosa 4au542; test: minimum inhibitory concentration (MIC); details: Tables 2A, 2B
Method: as §1

[10] = test system: Pseudomonas aeruginosa GN10362; test: minimum inhibitory concentration (MIC); details: Tables 2A, 2B
Method: as §1

[11] = test system: Enterobacter cloacae GN7471; test: minimum inhibitory concentration (MIC)
Method: as §1

[12] = test system: Escherichia coli GN5482; test: minimum inhibitory concentration (MIC); details: Tables 2A, 2B
Method: as §1

[13] = test system: Staphylococcus aureus Smith; test: minimum inhibitory concentration (MIC), standard method of Japan Society of Chemotherapy; details: Tables 2A, 2B
Method: as §1

[14] = test system: Pseudomonas maltophilia OF247; test: minimum inhibitory concentration (MIC); details: Stenotrophomonas maltophilia, Tables 2A, 2B
Method: as §1

[15] = test system: Pseudomonas cepacia OF189; test: minimum inhibitory concentration (MIC); details: Burkholderia cepacia, Tables 2A, 2B
Method: as §1

[16] = Proteus vulgris GN7919, Tables 2A, 2B, read-out: MIC
[17] = Citrobacter freundii GN7391, Tables 2A, 2B, read-out: MIC
[18] = Enterobacter cloacae 908RN, Tables 2A, 2B, read-out: MIC
[19] = Escherichia coli ML4704, Tables 2A, 2B, read-out: MIC
[20] = Enterobacter cloacae GN7471, Tables 2A, 2B, read-out: MIC
[21] = Enterobacter cloacae 908RN, Tables 2A, 2B

Structure (SMILES)	MIC [1, 16] [µg/mL]	MIC [2, 17] [µg/mL]	MIC [3, 18] [µg/mL]	MIC [4] [µg/mL]	MIC [5] [µg/mL]	MIC [6, 19] [µg/mL]	MIC [7] [µg/mL]	MIC [8] [µg/mL]	MIC [9] [µg/mL]	MIC [10] [µg/mL]	MIC [11, 20] [µg/mL]	MIC [12] [µg/mL]	MIC [13] [µg/mL]	MIC [3, 21] [µg/mL]	MIC [14] [µg/mL]	MIC [15] [µg/mL]	also measured
CON=C(C(=O)NC1C(=O)N2C(C(=O)O)=C(CSc3cc(C)nc4nc(CO)nn34)CSC12)c1csc(N)n1 (stereo not drawn) [Example 17, 7-[2-(2-amino-1,3-thiazol-4-yl)-2-(methoxyimino)acetamido]-3-[(2-hydroxymethyl-5-methyl-s-triazolo[1,5-a]pyrimidin-7-yl)thiomethyl]-3-cephem-4-carboxylic acid.hydrochloride]	25	50	50	12.5	0.39	0.025	100	12.5	100	100	3.13	0.1	0.39				
Cc1cc(SCC2=C(C(=O)O)N3C(=O)C(NC(=O)C(=NOC(C)(C)C(=O)O)c4csc(N)n4)[C@H]3SC2)n2nc(CO)nc2n1 (stereo partly drawn) [Example 20, 7-[2-(2-amino-1,3-thiazol-4-yl)-2-(1-carboxy-1-methylethoxyimino)acetamido]-3-[(2-hydroxymethyl-5-methyl-s-triazolo[1,5-a]pyrimidin-7-yl)thiomethyl]-3-cephem-4-carboxylic acid]	3.13 (≈ 4.72 µM)	> 100		12.5 (≈ 18.8 µM)	0.78 (≈ 1.18 µM)	0.39 (≈ 0.588 µM)	6.25 (≈ 9.42 µM)	6.25 (≈ 9.42 µM)	12.5 (≈ 18.8 µM)	12.5 (≈ 18.8 µM)	6.25 (≈ 9.42 µM)	0.78 (≈ 1.18 µM)	3.13 (≈ 4.72 µM)	100 (≈ 151 µM)			
COCc1nc2nc(C)cc(SCC3=C(C(=O)O)N4C(=O)C(NC(=O)C(=NOC(C)(C)C(=O)NNC(=O)c5ccc(O)c(O)c5)c5csc(N)n5)C4SC3)n2n1 (stereo not drawn) [Example 24, 7-{2-[2-amino-1,3-thiazol-4-yl]-2-[1-(3-(3,4-dihydroxybenzoyl)carbazoyl)-1-methylethoxyimino]acetamido}-3-[(2-methoxymethyl-5-methyl-s-triazolo[1,5-a]-pyrimidin-7-yl)thiomethyl]-3-cephem-4-carboxylic acid.hydrochlride]	1.56 (≈ 1.88 µM)	12.5 (≈ 15.1 µM)	6.25 (≈ 7.55 µM)	0.39 (≈ 0.471 µM)	0.025 (≈ 0.0302 µM)	0.025 (≈ 0.0302 µM)	0.05 (≈ 0.0604 µM)	6.25 (≈ 7.55 µM)	0.2 (≈ 0.242 µM)	0.05 (≈ 0.0604 µM)	3.13 (≈ 3.78 µM)	0.025 (≈ 0.0302 µM)	3.13 (≈ 3.78 µM)				
COCc1nc2nc(C)cc(SCC3=C(C(=O)O)N4C(=O)C(NC(=O)C(=NOC)c5csc(N)n5)C4SC3)n2n1 (stereo not drawn) [Example 26]	25 (≈ 41.3 µM)	50 (≈ 82.6 µM)	50 (≈ 82.6 µM)	25 (≈ 41.3 µM)	1.56 (≈ 2.58 µM)	0.05 (≈ 0.0826 µM)	100 (≈ 165 µM)	25 (≈ 41.3 µM)	> 100	100 (≈ 165 µM)	6.25 (≈ 10.3 µM)	0.39 (≈ 0.644 µM)	0.78 (≈ 1.29 µM)				
CC(C)(ON=C(C(=O)NC1C(=O)N2C(C(=O)O)=C(CSc3cc(C(=O)O)nc4nc(CO)nn34)CSC12)c1csc(N)n1)C(=O)NNC(=O)c1ccc(O)c(O)c1 (stereo not drawn) [Example 30, 7-{2-[2-amino-1,3-thiazol-4-yl]-2-[1-(3-(3,4-dihydroxybenzoyl)carbazoyl)-1-methylethoxyimino]acetamido}-3-[(5-carboxy-2-hydroxymethyl-s-triazolo[1,5-a]-pyrimidin-7-yl)thiomethyl]-3-cephem-4-carboxylic acid.hydrochlride]	3.13 (≈ 3.71 µM)	1.56 (≈ 1.85 µM)	1.56 (≈ 1.85 µM)	0.78 (≈ 0.924 µM)	0.025 (≈ 0.0296 µM)	0.025 (≈ 0.0296 µM)	0.1 (≈ 0.119 µM)	25 (≈ 29.6 µM)	0.2 (≈ 0.237 µM)	0.025 (≈ 0.0296 µM)	0.78 (≈ 0.924 µM)	0.05 (≈ 0.0593 µM)	12.5 (≈ 14.8 µM)				
CON=C(C(=O)NC1C(=O)N2C(C(=O)O)=C(CSc3cc(C(=O)O)nc4nc(CO)nn34)CSC12)c1csc(N)n1 (stereo not drawn) [Example 31]	50 (≈ 80.4 µM)	100 (≈ 161 µM)		25 (≈ 40.2 µM)	0.2 (≈ 0.322 µM)	0.1 (≈ 0.161 µM)	> 100	12.5 (≈ 20.1 µM)	> 100	100 (≈ 161 µM)	6.25 (≈ 10.1 µM)	0.2 (≈ 0.322 µM)	6.25 (≈ 10.1 µM)	100 (≈ 161 µM)			
Cc1nc2nc(CO)cc(SCC3=C(C(=O)[O-])N4C(=O)C(NC(=O)C(=NOC(C)(C)C(=O)NNC(=O)c5ccc(O)c(O)c5)c5csc(N)n5)[C@H]4SC3)n2n1.[Na+] (stereo partly drawn) [Example 37, sodium 7-{2-[2-amino-1,3-thiazol-4-yl]-2-[1-(3-(3,4-dihydroxybenzoyl)carbazoyl)-1-methylethoxyimino]acetamido}-3-[(5-hydroxymethyl-2-methyl-s-triazolo[1,5-a]pyrimidin-7-yl)thiomethyl]-3-cephem-4-carboxylate]				0.39	0.012		0.1	6.25	0.2	0.1		0.05	3.13		0.39	0.025	MIC [1]: 1.56 µg/mL; MIC ([2]; Citrobacter freundii, GN7391): 6.25 µg/mL; MIC [3]: 1.56 µg/mL; MIC ([6]; Escherichia coli, ML4704): 0.1 µg/mL; MIC ([11]; Enterobacter cloacae, GN7471): 1.56 µg/mL
CON=C(C(=O)NC1C(=O)N2C(C(=O)O)=C(CSc3cc(CO)nc4nc(C)nn34)CSC12)c1csc(N)n1 (stereo not drawn) [Example 38]	6.25 (≈ 10.6 µM)	25 (≈ 42.3 µM)	50 (≈ 84.5 µM)	25 (≈ 42.3 µM)	0.78 (≈ 1.32 µM)	0.05 (≈ 0.0845 µM)	100 (≈ 169 µM)	12.5 (≈ 21.1 µM)	> 100	100 (≈ 169 µM)	3.13 (≈ 5.29 µM)	0.1 (≈ 0.169 µM)	0.78 (≈ 1.32 µM)		50 (≈ 84.5 µM)	25 (≈ 42.3 µM)	
CC(C)(ON=C(C(=O)NC1C(=O)N2C(C(=O)[O-])=C(CSc3cc(CO)nc4nc(CO)nn34)CS[C@H]12)c1csc(N)n1)C(=O)NNC(=O)c1ccc(O)c(O)c1.[Na+] (stereo partly drawn) [Example 42, sodium 7-{2-[2-amino-1,3-thiazol-4-yl]-2[1-(3-(3,4-dihydroxybenzoyl)carbazoyl)-1-methylethoxyimino]acetamido}-3-[(2,5-bis(hydroxymethyl)-s-triazolo[1,5-a]pyrimidin-7 yl)thiomethyl]-3-cephem-4-carboxylate]				0.39	0.2		0.1	6.25	0.2	0.1		0.1	3.13		0.78	0.025	MIC [1]: 3.13 µg/mL; MIC ([2]; Citrobacter freundii, GN7391): 6.25 µg/mL; MIC [3]: 3.13 µg/mL; MIC ([6]; Escherichia coli, ML4704): 0.1 µg/mL; MIC ([11]; Enterobacter cloacae, GN7471): 1.56 µg/mL
Cc1cc(SCC2=C(C(=O)O)N3C(=O)C(NC(=O)C(=NOC(C)(C)C(=O)NN)c4csc(N)n4)C3SC2)n2nc(CO)nc2n1 (stereo not drawn) [Example 43, 7-[2-(2-amino-1,3-thiazol-4-yl)-2-(1-carbazoyl-1-methylethoxyimino)acetamido]-3-[(2-hydroxymethyl5-methyl-s-triazolo[1,5-a]pyrimidin-7-yl)thiomethyl]-3-cephem-4-carboxylate.dihydrochloride]	50	100		50	3.13	0.2	25	12.5	100	25	25	0.39	6.25	> 100	50	50	
